Here are results for 10 molecules from ChEMBL document CHEMBL4414669, “Structural Characterization and Anti-infective Activity of 9,10-Seco-29-norcycloartane Glycosides Isolated from the Flowers of the Peruvian Medicinal Plant Cordia lutea” (J Nat Prod, 2019).

One series deals with Staphylococcus aureus. Put plainly: Antibacterial activity against Staphylococcus aureus ATCC 25923 incubated for 24 hrs by broth microdilution method. It is filed as functional. The note with it: ATCC 25923, 24 h.
In another series the test system is Escherichia coli. As to the kind of experiment: Antibacterial activity against Escherichia coli ATCC 25922 incubated for 24 hrs by broth microdilution method. The note with it: ATCC 25922, 24 h. It is filed as functional.
The next series relates to Plasmodium falciparum. As to the kind of experiment: Antiplasmodial activity against chloroquine-resistant Plasmodium falciparum FcB1 infected in RBC (unknown origin) incubated for 48 hrs by SYBR green dye based fluorescence analysis. The note with it: FcB1, 48 h. It is filed as functional, organism-based.
Series [1] is described as follows: Cytotoxicity against mouse RAW264.7 cells assessed as reduction in cell viability incubated for 48 hrs by MTT assay. It is filed as cell-based.
The test system of a further series is Leishmania infantum. Put plainly: Antileishmanial activity against Leishmania infantum MHOM/MA/67/ITMAP-263 axenic amastigotes assessed as inhibition of parasitic metabolic activity incubated for 48 hrs by steady Glow reagent based luminescence assay. It is filed as functional, organism-based. The note with it: MHOM/MA/67/ITMAP-263, 48 h.
A further series relates to Pseudomonas aeruginosa. As to the kind of experiment: Antibacterial activity against Pseudomonas aeruginosa ATCC 27853 incubated for 24 hrs by broth microdilution method. It is filed as functional. The note with it: ATCC 27853, 24 h.
For another series, the system named is Helicobacter pylori. Put plainly: Antibacterial activity against Helicobacter pylori CIP 103995 incubated for 72 hrs under microaerophilic conditions by broth microdilution method. It is filed as functional. The note with it: CIP 103995, 72 h.

Each structure is given as a SMILES string. Values after ≈ are worked out from the molar mass of the structure shown.

Take `C=C(C(C)C)[C@H](O)C[C@@H](C)[C@H]1CC[C@@]2(C)[C@@H]3CC[C@H]4[C@H](C)[C@@H](O[C@@H]5OC[C@@H](O)[C@H](O)[C@H]5O)CC[C@]4(O)CC3=CC[C@]12C`: the MIC against Staphylococcus aureus is 62.5 µg/mL (≈ 106 µM); in the series with Escherichia coli it was > 125 µg/mL; in the series with Pseudomonas aeruginosa it was > 125 µg/mL; in the series with Helicobacter pylori, 15.6 µg/mL (≈ 26.4 µM). For the same molecule, the IC50 was > 150 µM with Plasmodium falciparum and 5 µM in the series with Leishmania infantum. Further, the CC50 at 48 h in series [1] came out at 24.2 µM.

Turning to `C/C=C(\C(C)C)[C@H](O)C[C@@H](C)[C@H]1CC[C@@]2(C)[C@@H]3CC[C@H]4[C@H](C)[C@@H](O[C@@H]5O[C@@H](C)[C@H](O)[C@@H](O)[C@H]5O)CC[C@]4(O)CC3=CC[C@]12C`, the MIC is > 125 µg/mL with Staphylococcus aureus, > 125 µg/mL with Escherichia coli, > 125 µg/mL in the series with Pseudomonas aeruginosa and 31.3 µg/mL (≈ 50.6 µM) in the series on Helicobacter pylori. Moreover, the values for the IC50 in the series with Plasmodium falciparum and with Leishmania infantum were 61.3 µM and 5.2 µM, respectively. The CC50 at 48 h in series [1] came out at 21.9 µM.

As for `C=C(C(C)C)[C@H](O)C[C@@H](C)[C@H]1CC[C@@]2(C)[C@@H]3CC[C@H]4[C@H](C)[C@@H](O[C@@H]5OC[C@H](O)[C@H](O)[C@H]5O)CC[C@]4(O)CC3=CC[C@]12C`, the MIC is 31.3 µg/mL (≈ 53 µM) with Staphylococcus aureus, > 125 µg/mL against Escherichia coli, > 125 µg/mL against Pseudomonas aeruginosa and 15.6 µg/mL (≈ 26.4 µM) with Helicobacter pylori. Besides, the half-inhibitory concentration (IC50) with Plasmodium falciparum was determined as 52.4 µM; in the series with Leishmania infantum, 7.7 µM. For the same molecule, the half-maximal cytotoxic concentration (CC50) at 48 h in series [1] was found to be 26.6 µM.

On to `C/C=C(\C(C)C)[C@H](O)C[C@@H](C)[C@H]1CC[C@@]2(C)[C@@H]3CC[C@H]4[C@H](C)[C@@H](O[C@@H]5OC[C@H](O)[C@H](O)[C@H]5O)CC[C@]4(O)CC3=CC[C@]12C`, for which the MIC in the series with Staphylococcus aureus was 31.3 µg/mL (≈ 51.7 µM); against Escherichia coli, > 125 µg/mL; against Pseudomonas aeruginosa, > 125 µg/mL; with Helicobacter pylori, 15.6 µg/mL (≈ 25.8 µM). The IC50 with Plasmodium falciparum worked out at 53.7 µM; in the series on Leishmania infantum, 6.3 µM. In series [1], the CC50 at 48 h is 19.6 µM.

As for `C=C(C(C)C)[C@H](O)C[C@@H](C)[C@H]1CC[C@@]2(C)[C@@H]3CC[C@H]4[C@H](C)[C@@H](O[C@@H]5O[C@@H](C)[C@H](O)[C@@H](O)[C@H]5O)CC[C@]4(O)CC3=CC[C@]12C`, the MIC with Staphylococcus aureus was > 125 µg/mL; against Escherichia coli, > 125 µg/mL; against Pseudomonas aeruginosa, > 125 µg/mL; against Helicobacter pylori it was 31.3 µg/mL (≈ 51.7 µM). Moreover, the IC50 was 55 µM in the series on Plasmodium falciparum and 6.7 µM in the series with Leishmania infantum. In addition, the CC50 at 48 h in series [1] is 35.1 µM.

Turning to `C/C=C(\C(C)C)[C@H](O)C[C@@H](C)[C@H]1CC[C@@]2(C)[C@@H]3CC[C@H]4[C@H](C)[C@@H](O[C@@H]5OC[C@@H](O)[C@H](O)[C@H]5O)CC[C@]4(O)CC3=CC[C@]12C`, the MIC in the series on Staphylococcus aureus was > 125 µg/mL; in the series with Escherichia coli it was > 125 µg/mL; in the series on Pseudomonas aeruginosa it was > 125 µg/mL; against Helicobacter pylori it was 15.6 µg/mL (≈ 25.8 µM). Further, the figures for the IC50 in the series on Plasmodium falciparum and in the series on Leishmania infantum were 46.9 µM and 5.2 µM, respectively. Besides, the CC50 at 48 h in series [1] is 30.3 µM.

Regarding `C[C@@H]1[C@H](O)[C@@H](C)/C=C/C=C/C=C/C=C/C=C/C=C/C=C/[C@H](O[C@@H]2O[C@H](C)[C@@H](O)[C@H](N)[C@@H]2O)C[C@@H]2O[C@](O)(C[C@@H](O)C[C@@H](O)[C@H](O)CC[C@@H](O)C[C@@H](O)CC(=O)O[C@H]1C)C[C@H](O)[C@H]2C(=O)O` [AMPHOTERICIN B], the IC50 in the series with Leishmania infantum was determined as 0.07 µM.

In turn, `CC[C@H]1OC(=O)[C@H](C)[C@@H](O[C@H]2C[C@@](C)(OC)[C@@H](O)[C@H](C)O2)[C@H](C)[C@@H](O[C@@H]2O[C@H](C)C[C@H](N(C)C)[C@H]2O)[C@](C)(OC)C[C@@H](C)C(=O)[C@H](C)[C@@H](O)[C@]1(C)O` [CLARITHROMYCIN] displayed an MIC with Helicobacter pylori of 0.01 µg/mL (≈ 0.0134 µM).

Consider `COc1cccc2c1C(=O)c1c(O)c3c(c(O)c1C2=O)C[C@@](O)(C(=O)CO)C[C@@H]3O[C@H]1C[C@H](N)[C@H](O)[C@H](C)O1` [DOXORUBICIN], for which the CC50 at 48 h in series [1] was determined as 0.8 µM.

`CN(C)[C@@H]1C(O)=C(C(N)=O)C(=O)[C@@]2(O)C(O)=C3C(=O)c4c(O)cccc4[C@@](C)(O)[C@H]3C[C@@H]12` [TETRACYCLINE]: the values for the MIC in the series with Staphylococcus aureus, against Escherichia coli and against Pseudomonas aeruginosa were 0.5 µg/mL (≈ 1.13 µM), 2 µg/mL (≈ 4.5 µM) and 16 µg/mL (≈ 36 µM), respectively.
